According to US8202902B2, “Bivalent SMAC mimetics and the uses thereof” (The Regents of the University of Michigan, priority 2006, dated 2012):

Columns and labels:
MDA-MB-231 cells = test: Trypan blue cell viability assay, MDA-MB-231; assay type: cell-based, human; conditions: 100 nM, 2 days
Description: 0.3×10^6 cells were seeded in 6 well plates and incubated at 37° C. in an atmosphere of 95% air and 5% CO2 without or with tested compound for 2 days. A 1:1 dilution of 0.4% Trypan blue (Invitrogen Corporation) was used to determine cell viability.

[1] = system: SK-OV-3 ovarian cancer cell line; test: Apoptosis assay (Annexin V/P.I.), SK-OV-3; assay type: cell-based; conditions: 1 nM for 12 h
Description: Analysis of apoptosis was performed using an apoptosis detection kit (BioVision Research Products, Mountain View, Calif.) according to the manufacturer's protocol. Briefly, cells were treated with Smac mimetics for 12 hours, harvested and washed with ice-cold PBS. Cells were stained with Annexin V-FITC and Propidium iodide (P.I.) for 15 minutes at room temperature in the dark and immediately analyzed by FACS calibur flow cytometer (Becton Dickinson, Erembodegem, Belgium). Cells that were stained Annexin V (+) and P.I. (−) were considered early-stage apoptotic cells. Cells that were stained annexin V (+) and P.I. (+) were considered late-stage apoptotic cells and cells that were stained annexin V (−) and P.I. (+) were considered necrotic cells (FIG. 6).
Treatment with SM-164 at 1 nM for 12 h induced 32%, 33%, and 37% of the MDA-MB-231, SK-OV-3 and MALME-3M cells to undergo apoptosis, respectively (FIGS. 12-14).

[2] = system: MDA-MB-231 xenograft model; test: Inhibition of tumor growth in the MDA-MB-231 xenograft model; assay type: in vivo, mice
Description: SM-164 was evaluated for its ability to inhibit tumor growth. […] Treatment with SM-164 at 5 mg/kg reduces the tumor volume from 147±54 mm^3 at the beginning of the treatment (day 25) to 54±32 mm^3 at the end of the treatment (day 36), a reduction of 65%. The strong antitumor activity by SM-164 is long lasting and not transient.

[3] = system: MDA-MB-231 and SK-OV-3 cancer cell lines; test: Role of caspase-8, -3 and -9 (siRNA, caspase inhibitors) in activity of Smac mimetics; assay type: cell-based; conditions: siRNA
Excerpt: To examine the role of caspase-8, -3 and -9 in apoptosis induction by Smac mimetics, siRNA was employed against these caspases in MDA-MB-231 and SK-OV-3 cancer cell lines.

[4] = system: Sensitive cancer cell lines; test: Secreted TNFα in cell culture medium (ELISA), sensitive lines; assay type: cell-based
Description: (§1) To explore whether the resistance of cancer cells to Smac mimetics is due to the lack of secreted TNFα, the levels of secreted TNFα were examined. Secreted TNFα concentrations were determined in 200 μl of cell culture medium using the Quantikine HS Human TNFα ELISA kit (R&D Systems). The assay was performed according to the manufacturer's instructions.

SK-OV-3 = test: Cell growth inhibition, WST assay, SK-OV-3; assay type: cell-based; conditions: Homo sapiens
Description: (§2) Cells were seeded in 96-well flat bottom cell culture plates at a density of 3000 cells/well with a tested compound and incubated at 37° C. in an atmosphere of 95% air and 5% CO2 for 4 days. The rate of cell growth inhibition after treatment with different concentrations of the compound was determined using a WST-8 kit (2-(2-methoxy-4-nitrophenyl)-3-(4-nitrophenyl)-5-(2, 4 disulfophenyl)-2H-tetrazolium monosodium salt; Dojindo Molecular Technologies, Inc., Gaithersburg, Md.). WST-8 was added at a final concentration of 10% to each well, and then the plates were incubated at 37° C. for 2-3 hrs. The absorbance of the samples was measured at 450 nm using a ULTRA Tecan Reader (Molecular Device).

[5] = system: MDA-MB-231 (2LMP) human breast cancer cells; test: Cell growth inhibition by cisplatin or mitoxantrone with SH-164; assay type: cell-based; conditions: 100 nM
Description: as §2

[6] = system: XIAP stably transfected Jurkat leukemia cell line (XIAP-JK) and vector control cell line (VEC-JK); test: XIAP-overexpressing Jurkat cells, Smac mimetics with TNFα; assay type: cell-based
Excerpt: The effect of XIAP overexpression in cancer cells on TNFα-dependent apoptosis induction by Smac mimetics was investigated. Since stable transfection of XIAP in those sensitive cancer cell lines was unsuccessful, the previously well-characterized XIAP stably transfected Jurkat leukemia cell line (XIAP-JK) and its vector control cell line (VEC-JK) were employed (Wilkinson et al., Mol. Cell. Biol. 24:7003 (2004)). The VEC-JK cell line with low expression of XIAP was sensitive to SM-122 or SM-164 in combination with TNFα (FIG. 43).

[7] = system: MDA-MB-231, MALME-3M and SK-OV-3 cell lines; test: Cell death induction with TNFα or TRAIL neutralizing antibody; assay type: cell-based
[8] = system: HCT116 XIAP^+/+ and XIAP^−/− isogenic cell lines; test: HCT116 XIAP+/+ and XIAP-/- isogenic cell lines, Smac mimetics with TNFα; assay type: cell-based
Excerpt: To complement the siRNA experiments and to more precisely define the role of XIAP in TNFα-dependent apoptosis induction by Smac mimetics, HCT116 XIAP^+/+ and XIAP^−/− isogenic cell lines were used in further studies (Cummins et al., Cancer Res. 64:3006 (2004)). Since both these cell lines were resistant to SM-122 and SM-164 as a single agent (FIG. 41), the role of XIAP using Smac mimetics in combination with TNFα was investigated.
The combination of SM-164 at these concentrations with TNFα was effective in induction of caspase-3 activation, PARP cleavage and in inhibition of cell growth in the XIAP^+/+ cell line (FIG. 42). Although knockout of XIAP sensitized the HCT116 cells to SM-164 in combination with TNFα, the effect was much less than that observed with the combination of SM-122 with TNFα (FIG. 42).

[9] = system: resistant cancer cell lines (MDA-MB-453 breast, DU-145 prostate, MDA-MB-435 melanoma); test: Secreted TNFα in cell culture medium (ELISA), resistant lines; assay type: cell-based
Description: as §1

[10] = target: T1, human XIAP protein (residues 120-356) (Homo sapiens, UniProt P98170); test: Fluorescence-polarization-based binding assay to XIAP protein (Smac2-F tracer)
T1 construct: human XIAP protein (residues 120-356) (10 nM)
Description: The polarization values were measured after 2 hours incubation, using the Ultra plate reader. […] Curve fitting is performed using GraphPad Prism® software.

[11] = target: T2, Recombinant XIAP containing linker-BIR2-BIR3 (residues 120-356) (Homo sapiens, UniProt P98170); test: Cell-free functional assay: antagonism of XIAP inhibition of caspase-3/-7; assay type: biochemical
T2 construct: Recombinant XIAP containing linker-BIR2-BIR3 (residues 120-356)

[12] = system: HCT116 and MDA-MB-453 cell lines; test: Activity with exogenous TNFα in resistant cancer cell lines; assay type: cell-based

T1 sequence (P98170 120-356): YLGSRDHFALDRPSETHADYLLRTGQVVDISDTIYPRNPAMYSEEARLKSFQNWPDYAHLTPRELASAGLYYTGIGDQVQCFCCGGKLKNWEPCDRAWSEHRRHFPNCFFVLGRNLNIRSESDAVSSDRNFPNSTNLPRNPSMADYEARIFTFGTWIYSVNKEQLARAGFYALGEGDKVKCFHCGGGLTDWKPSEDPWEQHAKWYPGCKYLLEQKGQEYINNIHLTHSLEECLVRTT
T2 sequence (P98170 120-356): as above

CN[C@@H](C)C(=O)N[C@H]1CCCC[C@H]2CC[C@@H](C(=O)N[C@@H](c3ccccc3)c3cn(CCCCc4ccc(CCCCn5cc([C@@H](NC(=O)[C@@H]6CC[C@@H]7CCCC[C@H](NC(=O)[C@H](C)NC)C(=O)N76)c6ccccc6)nn5)cc4)nn3)N2C1=O [SH-164]
cell death (MDA-MB-231 cells): at least 70% | cells undergoing apoptosis [1]: 33% | tumor growth during the treatment ([2]; 1 mg/kg): completely inhibits tumor growth | tumor volume at the beginning of the treatment ([2]; 5 mg/kg, day 25): 147±54 mm^3 | reduction of tumor volume ([2]; 5 mg/kg, day 25 to day 36): 65% | tumor volume at the end of the treatment ([2]; 5 mg/kg, day 36): 54±32 mm^3 | efficacy compared with TXT ([2]; 5 mg/kg, end of treatment (p<0.01) or control tumor 750 mm^3 (p<0.02)): statistically more effective than TXT | weight loss or other sign of toxicity ([2]; 1 or 5 mg/kg): no significant weight loss or other sign of toxicity | effect of knockdown of caspase-3 and -8 on activity [3]: markedly attenuated | effect of knockdown of caspase-9 on activity [3]: minimal effect | secretion of TNFα [4]: further enhanced | IC50 (SK-OV-3): < 10 nM | sensitization to growth inhibition by cisplatin and mitoxantrone [5]: sensitized the cells to growth inhibition by both agents | sensitivity in combination with TNFα ([6]; VEC-JK cell line): sensitive | sensitivity in combination with TNFα ([6]; XIAP-JK cell line): much less effective than in the VEC-JK cell line | cell death induction in presence of neutralizing antibodies [7]: effectively blocked by a TNFα, but not by a TRAIL, neutralizing antibody | caspase-3 activation, PARP cleavage and cell growth inhibition ([8]; 10-100 nM with TNFα, XIAP+/+ cell line): effective | cIAP-1 degradation ([8]; 10-100 nM, both cell lines): effectively induced cIAP-1 degradation | sensitivity as a single agent ([8]; both cell lines): resistant | induction of TNFα [9]: failed to induce detectable levels of TNFα | binding affinity better than the monovalent Smac mimetic SH-122 [10]: more than 500 fold | more potent than the natural Smac peptide AVPI [10]: > 5000 times | more potent than SM-122 in antagonizing XIAP and promoting caspase activity [11]: 60 times | effect of exogenous TNFα on activity [12]: significantly enhanced
